Laboratory results taken from article PMC7187165, “Structure‐Based Design, Synthesis, and Biological Evaluation of Triazole‐Based smHDAC8 Inhibitors” (Chemmedchem, 2020).

Key:
hsHDAC1 [1] = target: T1, hsHDAC1 (Homo sapiens, UniProt Q13547); assay: In vitro hsHDAC1 inhibition (ZMAL substrate, trypsin developer); assay type: biochemical; conditions: read-out: hsHDAC1 (% inhibition, ZMAL)
smHDAC8 = target: T2, smHDAC8 (Schistosoma mansoni, UniProt A5H660); assay: biochemical; assay type: biochemical; conditions: @ 10 μM; pretest n=1; read-out: smHDAC8 (% inhibition, Fluor de Lys)
T2 construct: made in house; host or cells: E. coli
T2 sequence (A5H660 1-440): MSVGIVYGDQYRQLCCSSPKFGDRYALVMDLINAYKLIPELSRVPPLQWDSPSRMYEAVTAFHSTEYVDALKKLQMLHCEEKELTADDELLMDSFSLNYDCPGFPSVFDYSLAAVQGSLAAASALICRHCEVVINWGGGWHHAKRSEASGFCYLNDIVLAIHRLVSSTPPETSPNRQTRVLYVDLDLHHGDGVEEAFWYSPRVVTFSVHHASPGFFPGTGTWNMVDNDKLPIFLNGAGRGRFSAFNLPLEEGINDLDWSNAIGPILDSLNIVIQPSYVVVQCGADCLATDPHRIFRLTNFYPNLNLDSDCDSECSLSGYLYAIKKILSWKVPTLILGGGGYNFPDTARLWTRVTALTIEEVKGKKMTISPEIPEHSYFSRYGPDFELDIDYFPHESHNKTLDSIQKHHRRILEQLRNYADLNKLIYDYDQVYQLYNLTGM

hsHDAC1 [2] = target: T1, hsHDAC1; parameters: method as in PMID 24086136, PMID 26013035; conditions: @ 10 μM; SAHA row of Table 3; cited from earlier work

T1 sequence (Q13547 whole entry): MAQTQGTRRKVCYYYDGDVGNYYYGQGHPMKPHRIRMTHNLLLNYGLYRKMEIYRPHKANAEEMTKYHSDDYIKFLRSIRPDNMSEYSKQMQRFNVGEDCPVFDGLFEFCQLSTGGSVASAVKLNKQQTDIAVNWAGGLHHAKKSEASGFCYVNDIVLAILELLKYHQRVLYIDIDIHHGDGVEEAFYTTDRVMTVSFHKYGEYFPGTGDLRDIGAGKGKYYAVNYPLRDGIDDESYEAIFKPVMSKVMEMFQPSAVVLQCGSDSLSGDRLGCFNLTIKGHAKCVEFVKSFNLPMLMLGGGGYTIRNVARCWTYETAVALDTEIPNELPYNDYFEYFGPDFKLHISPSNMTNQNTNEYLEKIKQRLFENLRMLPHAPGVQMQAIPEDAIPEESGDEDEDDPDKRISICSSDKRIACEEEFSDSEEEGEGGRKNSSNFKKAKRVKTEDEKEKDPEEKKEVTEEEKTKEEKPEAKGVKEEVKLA

O=C(CCCCCCC(=O)Nc1ccccc1)NO [SAHA (1), SAHA, reference compound]
inhibition at 10 µM (hsHDAC1 [1]): 97.3 ± 1.3% | inhibition at 10 µM (smHDAC8): 72% | hsHDAC1 % inhibition (ZMAL) (hsHDAC1 [2]): 0.117±0.0056 97.3±1.3 % @ 10 μM
